Molecules are shown by their SMILES.

One assay concerns the target Escherichia coli DNA gyrase A/B tetramer (Escherichia coli (strain K12), UniProt P0AES4+P0AES6). Briefly: DNA gyrase supercoiling activity fluorescence polarisation assay. It is filed as biochemical.
Details: not given
The procedure, abridged:
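Supercoiling reactions quenched with 40 nM 5′-BODIPY-FL triplex-forming oligonucleotide probe in pH 3.5 NaCl/sodium acetate buffer; after 60 min, fluorescence anisotropy read (ex 485/em 535 nm). IC50 by nonlinear regression, normalised to 0.8% DMSO (100% activity) and 5 μM ciprofloxacin (0% activity).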
`C[C@@H]1CN2c3c(cc4c(CO)noc4c3F)CC3(C(=O)NC(=O)NC3=O)[C@H]2[C@H](C)O1` (relative stereo) [Example 185, (2R,4S,4aS)-rel-11-fluoro-8-(hydroxymethyl)-2,4-dimethyl-2,4,4a,6-tetrahydro-1H,1′H-spiro[isoxazolo[4,5-g][1,4]oxazino[4,3-a]quinoline-5,5′-pyrimidine]-2′,4′,6′(3′H)-trione]: inhibition was half-maximal at 1400 nM (IC50).

Staying with this assay, now noted: 5 nM enzyme, relaxed plasmid, 0.3 mM ATP, ambient temperature; read-out: E. coli DNA gyrase supercoiling IC50.
Regarding `C[C@@H]1CN2c3c(cc4c([S+](C)[O-])noc4c3F)CC3(C(=O)NC(=O)NC3=O)[C@H]2[C@H](C)O1` (relative stereo) [Example 181, (2R,4S,4aS)-rel-11-fluoro-2,4-dimethyl-8-(methylsulfinyl)-1,2,4,4a-tetrahydro-2′H,6H-spiro[1,4-oxazino[4,3-a][1,2]oxazolo[4,5-g]quinoline-5,5′-pyrimidine]-2′,4′,6′(1′H,3′H)-trione], the IC50 amounted to 3300 nM. `C[C@@H]1CN2c3c(cc4c(S(C)(=O)=O)noc4c3F)CC3(C(=O)NC(=O)NC3=O)[C@H]2[C@H](C)O1` (relative stereo) [Example 182, (2R,4S,4aS)-rel-11-fluoro-2,4-dimethyl-8-(methylsulfonyl)-1,2,4,4a-tetrahydro-2′H,6H-spiro[1,4-oxazino[4,3-a][1,2]oxazolo[4,5-g]quinoline-5,5′-pyrimidine]-2′,4′,6′(1′H,3′H)-trione]: the IC50 came out at 2400 nM.

As for `C[C@@H]1CN2c3c(cc4c(C#N)noc4c3F)CC3(C(=O)NC(=O)NC3=O)[C@H]2[C@H](C)O1` (relative stereo) [Example 183, (2R,4S,4aS)-rel-11-fluoro-2,4-dimethyl-2′,4′,6′-trioxo-1,1′,2,3′,4,4′,4a,6′-octahydro-2′H,6H-spiro[1,4-oxazino[4,3-a][1,2]oxazolo[4,5-g]quinoline-5,5′-pyrimidine]-8-carbonitrile], the IC50 turned out to be 12000 nM.

Consider `C[C@@H]1CN2c3c(cc4c(-n5cc(C(=O)O)cn5)noc4c3F)CC3(C(=O)NC(=O)NC3=O)[C@H]2[C@H](C)O1` (relative stereo) [Example 186, 1-[(2R,4S,4aS)-rel-11-fluoro-2,4-dimethyl-2′,4′,6′-trioxo-1,1′,2,3′,4,4′,4a,6′-octahydro-2′H,6H-spiro[1,4-oxazino[4,3-a][1,2]oxazolo[4,5-g]quinoline-5,5′-pyrimidin]-8-yl]-1H-pyrazole-4-carboxylic acid], for which the IC50 came out at 7600 nM. As for `C[C@@H]1CN2c3c(cc4c(-n5cc(C(=O)N(C)C)cn5)noc4c3F)CC3(C(=O)NC(=O)NC3=O)[C@H]2[C@H](C)O1` (relative stereo) [Example 187, 1-[(2R,4S,4aS)-rel-11-fluoro-2,4-dimethyl-2′,4′,6′-trioxo-1,1′,2,3′,4,4′,4a,6′-octahydro-2′H,6H-spiro[1,4-oxazino[4,3-a][1,2]oxazolo[4,5-g]quinoline-5,5′-pyrimidin]-8-yl]-N,N-dimethyl-1H-pyrazole-4-carboxamide], the IC50 worked out at 3300 nM. Still for that read-out and setting: then `CNC(=O)c1cnn(-c2noc3c(F)c4c(cc23)CC2(C(=O)NC(=O)NC2=O)[C@H]2[C@H](C)O[C@H](C)CN42)c1` (relative stereo) [Example 188, 1-[(2R,4S,4aS)-rel-11-fluoro-2,4-dimethyl-2′,4′,6′-trioxo-1,1′,2,3′,4,4′,4a,6′-octahydro-2′H,6H-spiro[1,4-oxazino[4,3-a][1,2]oxazolo[4,5-g]quinoline-5,5′-pyrimidin]-8-yl]-N-methyl-1H-pyrazole-4-carboxamide], with 2700 nM; and `C[C@@H]1CN2c3c(cc4c(-n5cc(C(N)=O)cn5)noc4c3F)CC3(C(=O)NC(=O)NC3=O)[C@H]2[C@H](C)O1` (relative stereo) [Example 189, 1-[(2R,4S,4aS)-rel-11-fluoro-2,4-dimethyl-2′,4′,6′-trioxo-1,1′,2,3′,4,4′,4a,6′-octahydro-2′H,6H-spiro[1,4-oxazino[4,3-a][1,2]oxazolo[4,5-g]quinoline-5,5′-pyrimidin]-8-yl]-1H-pyrazole-4-carboxamide], with 2200 nM; and `C[C@@H]1CN2c3c(cc4c(-n5cc(CO)cn5)noc4c3F)CC3(C(=O)NC(=O)NC3=O)[C@H]2[C@H](C)O1` (relative stereo) [Example 190, (2R,4S,4aS)-rel-11-fluoro-8-[4-(hydroxymethyl)-1H-pyrazol-1-yl]-2,4-dimethyl-1,2,4,4a-tetrahydro-2′H,6H-spiro[1,4-oxazino[4,3-a][1,2]oxazolo[4,5-g]quinoline-5,5′-pyrimidine]-2′,4′,6′(1′H,3′H)-trione], with 2100 nM. Take `C[C@@H]1CN2c3c(cc4c(C(N)=S)noc4c3F)CC3(C(=O)NC(=O)NC3=O)[C@H]2[C@H](C)O1` (relative stereo) [Intermediate 575, (2R,4S,4aS)-rel-11-fluoro-2,4-dimethyl-2′,4′,6′-trioxo-1,1′,2,3′,4,4′,4a,6′-octahydro-2′H,6H-spiro[1,4-oxazino[4,3-a][1,2]oxazolo[4,5-g]quinoline-5,5′-pyrimidine]-8-carbothioamide]: the IC50 amounted to 1000 nM. `CC1O[C@H](C)CN2c3c(cc4c(-c5cnccn5)noc4c3F)CC3(C(=O)NC(=O)NC3=O)[C@H]12` (stereo in doubt) [Example 165(a), (2R,4S,4aR)-11-fluoro-2,4-dimethyl-8-(pyrazin-2-yl)-2,4,4a,6-tetrahydro-1H,1′H-spiro[isoxazolo[4,5-g][1,4]oxazino[4,3-a]quinoline-5,5′-pyrimidine]-2′,4′,6′(3′H)-trione]: the IC50 amounted to 7800 nM. On to `Cc1noc2c(F)c3c(cc12)CC1(C(=O)NC(=O)NC1=O)[C@@H]1[C@@H](C)O[C@@H](C)CN31` [Example 2(a), (2S,4R,4aR)-11-fluoro-2,4,8-trimethyl-2,4,4a,6-tetrahydro-1′H,1′H-spiro[isoxazolo[4,5-g][1,4]oxazino[4,3-a]quinoline-5,5′-pyrimidine]-2′,4′,6′(3′H)-trione], for which the IC50 turned out to be 83000 nM.

For `Cc1noc2c(F)c3c(cc12)CC1(C(=O)NC(=O)NC1=O)[C@H]1[C@H](C)O[C@H](C)CN31` [Example 2(b), (2R,4S,4aS)-11-fluoro-2,4,8-trimethyl-2,4,4a,6-tetrahydro-1H,1′H-spiro[isoxazolo[4,5-g][1,4]oxazino[4,3-a]quinoline-5,5′-pyrimidine]-2′,4′,6′(3′H)-trione], the IC50 was determined as 300 nM. With `C[C@@H]1CN2c3c(cc4c(-n5cncn5)noc4c3F)CC3(C(=O)NC(=O)NC3=O)[C@H]2[C@H](C)O1` [Example 53(a), (2R,4 S,4 aS)-11-fluoro-2,4-dimethyl-8-(1H-1,2,4-triazol-1-yl)-2,4,4a,6-tetrahydro-1H,1′H-spiro[isoxazolo[4,5-g][1,4]oxazino[4,3-a]quinoline-5,5′-pyrimidine]-2′,4′,6′(3′H)-trione], the IC50 is 200 nM. Regarding `C[C@@H]1CN2c3c(cc4c(-n5cncn5)noc4c3F)CC3(C(=O)NC(=O)NC3=O)[C@@H]2[C@@H](C)O1` [Example 53(b), (2R,4R,4aR)-11-fluoro-2,4-dimethyl-8-(1H-1,2,4-triazol-1-yl)-2,4,4a,6-tetrahydro-1H,1′H-spiro[isoxazolo[4,5-g][1,4]oxazino[4,3-a]quinoline-5,5′-pyrimidine]-2′,4′,6′(3′H)-trione], the IC50 amounted to 20000 nM. In the case of `C[C@H]1CN2c3c(cc4c(-c5ccncn5)noc4c3F)CC3(C(=O)NC(=O)NC3=O)[C@@H]2[C@@H](C)O1` [Example 74(a), (2S,4R,4aR)-11-fluoro-2,4-dimethyl-8-(pyrimidin-4-yl)-2,4,4a,6-tetrahydro-1H,1′H-spiro[isoxazolo[4,5-g][1,4]oxazino[4,3-a]quinoline-5,5′-pyrimidine]-2′,4′,6′(3′H)-trione], the IC50 came out at 27000 nM. With `C[C@@H]1CN2c3c(cc4c(-c5ccncn5)noc4c3F)CC3(C(=O)NC(=O)NC3=O)[C@H]2[C@H](C)O1` [Example 74(b), (2R,4S,4aS)-11-fluoro-2,4-dimethyl-8-(pyrimidin-4-yl)-2,4,4a,6-tetrahydro-1H,1′H-spiro[isoxazolo[4,5-g][1,4]oxazino[4,3-a]quinoline-5,5′-pyrimidine]-2′,4′,6′(3′H)-trione], the IC50 was 300 nM. For `C[C@H]1CN2c3c(cc4c(C(F)(F)F)noc4c3F)CC3(C(=O)NC(=O)NC3=O)[C@@H]2[C@@H](C)O1` [Example 92(a), (2S,4R,4aR)-11-fluoro-2,4-dimethyl-8-(trifluoromethyl)-2,4,4a,6-tetrahydro-1H,1′H-spiro[isoxazolo[4,5-g][1,4]oxazino[4,3-a]quinoline-5,5′-pyrimidine]-2′,4′,6′(3′H)-trione], the IC50 stood at 65000 nM. Take `C[C@@H]1CN2c3c(cc4c(C(F)(F)F)noc4c3F)CC3(C(=O)NC(=O)NC3=O)[C@H]2[C@H](C)O1` [Example 92(b), (2R,4S,4aS)-11-fluoro-2,4-dimethyl-8-(trifluoromethyl)-2,4,4a,6-tetrahydro-1H,1′H-spiro[isoxazolo[4,5-g][1,4]oxazino[4,3-a]quinoline-5,5′-pyrimidine]-2′,4′,6′(3′H)-trione]: the IC50 stood at 600 nM. As for `C[C@H]1CN2c3c(cc4c(C(F)F)noc4c3F)CC3(C(=O)NC(=O)NC3=O)[C@@H]2[C@@H](C)O1` [Example 93(a), (2S,4R,4aR)-8-(difluoromethyl)-11-fluoro-2,4-dimethyl-2,4,4a,6-tetrahydro-1H,1′H-spiro[isoxazolo[4,5-g][1,4]oxazino[4,3-a]quinoline-5,5′-pyrimidine]-2′,4′,6′(3′H)-trione], the IC50 came out at 56000 nM. With `C[C@@H]1CN2c3c(cc4c(C(F)F)noc4c3F)CC3(C(=O)NC(=O)NC3=O)[C@H]2[C@H](C)O1` [Example 93(b), (2R,4S,4aS)-8-(difluoromethyl)-11-fluoro-2,4-dimethyl-2,4,4a,6-tetrahydro-1H,1′H-spiro[isoxazolo[4,5-g][1,4]oxazino[4,3-a]quinoline-5,5′-pyrimidine]-2′,4′,6′(3′H)-trione], the IC50 came out at 400 nM.

One may read the IC50 as the concentration that inhibits the measured activity by half.

Source of the values: patent US9040528B2, “Chemical compounds 542” (AstraZeneca AB, priority 2008, dated 2015).
